Data taken from the supplement of paper PMC10307832.

Columns and labels:
Assay in all cases: relative viability (nuclei count vs DMSO), 5 days (fraction); higher = more cells survive
[1] = compound: C1CNCCC1C2=CC(=NN2)C3=CC=NC=C3 + CS(=O)(=O)CCNCc1ccc(-c2ccc3ncnc(Nc4ccc(OCc5cccc(F)c5)c(Cl)c4)c3c2)o1 [Lapatinib] (partner 2 µM)
Procedure, shortened: (§1)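 Relative viability equals treated-well nuclei counts divided by vehicle-well nuclei counts. Counts came from 4× images of lung cancer cell lines grown in 1536-well plates for 5 days after pin-tool dosing on the day after seeding. Dosing used one drug alone or a fixed anchor-drug dose plus five library-drug doses (not always all listed) in √10 steps, and values are medians of duplicate plates.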

[2] = compound: C1CNCCC1C2=CC(=NN2)C3=CC=NC=C3 + NC(=O)Nc1cc(-c2cccc(F)c2)sc1C(=O)N[C@H]1CCCNC1 [AZD7762] (partner 0.2 µM)
Procedure, shortened: as §1

Tanzisertib + Trametinib = compound: O[C@H]1CC[C@H](Nc2ncc3nc(Nc4c(F)cc(F)cc4F)n([C@H]4CCOC4)c3n2)CC1 [Tanzisertib] + CC(=O)Nc1cccc(-n2c(=O)n(C3CC3)c(=O)c3c(Nc4ccc(I)cc4F)n(C)c(=O)c(C)c32)c1 [Trametinib] (partner 0.02 µM)
Procedure, shortened: as §1

Tanzisertib + Olaparib = compound: O[C@H]1CC[C@H](Nc2ncc3nc(Nc4c(F)cc(F)cc4F)n([C@H]4CCOC4)c3n2)CC1 [Tanzisertib] + O=C(c1cc(Cc2n[nH]c(=O)c3ccccc23)ccc1F)N1CCN(C(=O)C2CC2)CC1 [Olaparib] (partner 8 µM)
Procedure, shortened: as §1

| Cell Line | relative viability ([1]; first compound 0.08 µM) | relative viability ([1]; first compound 0.8 µM) | relative viability ([1]; first compound 2.53 µM) | relative viability ([1]; first compound 8 µM) | relative viability ([2]; first compound 0.08 µM) | relative viability ([2]; first compound 0.8 µM) | relative viability ([2]; first compound 2.53 µM) | relative viability ([2]; first compound 8 µM) | relative viability (Tanzisertib + Trametinib; first compound 0.08 µM) | relative viability (Tanzisertib + Trametinib; first compound 0.253 µM) | relative viability (Tanzisertib + Trametinib; first compound 0.8 µM) | relative viability (Tanzisertib + Trametinib; first compound 2.53 µM) | relative viability (Tanzisertib + Trametinib; first compound 8 µM) | relative viability (Tanzisertib + Olaparib; first compound 0.08 µM) | relative viability (Tanzisertib + Olaparib; first compound 0.253 µM) | relative viability (Tanzisertib + Olaparib; first compound 0.8 µM) | relative viability (Tanzisertib + Olaparib; first compound 2.53 µM) | relative viability (Tanzisertib + Olaparib; first compound 8 µM) |
| --- | --- | --- | --- | --- | --- | --- | --- | --- | --- | --- | --- | --- | --- | --- | --- | --- | --- | --- |
| LOU-NH91 | 0.766 | 0.739 | 0.826 | 0.854 | 0.797 | 0.739 | 0.853 | 0.773 | 0.824 | 0.811 | 0.773 | 0.756 | 0.71 | 0.948 | 0.896 | 0.989 | 0.89 | 0.727 |
| LU99A | 0.974 | 1.18 | 1.28 | 1.1 | 0.403 | 0.338 | 0.4 | 0.439 | 0.632 | 0.573 | 0.591 | 0.531 | 0.559 | 0.268 | 0.253 | 0.246 | 0.276 | 0.255 |
| LXF-289 | 0.934 | 0.937 | 0.864 | 0.91 | 1.15 | 1.14 | 1.15 | 1.1 | 0.694 | 0.691 | 0.748 | 0.663 | 0.82 | 1.13 | 1.02 | 1.12 | 1.02 | 1.13 |
| NCI-H23 | 1.15 | 1.34 | 1.49 | 1.22 | 0.329 | – | 0.326 | 0.308 | 0.389 | 0.357 | 0.418 | 0.367 | 0.419 | 0.316 | 0.341 | 0.36 | 0.301 | 0.314 |
| NCI-H322M | 0.545 | 0.555 | 0.592 | 0.524 | 0.582 | 0.597 | 0.627 | 0.622 | 0.464 | 0.482 | 0.491 | 0.448 | 0.544 | 0.805 | 0.836 | 0.762 | 0.89 | 0.726 |
| NCI-H358 | 0.388 | 0.463 | 0.43 | 0.462 | 0.487 | 0.626 | 0.553 | 0.54 | 0.141 | 0.134 | 0.151 | 0.155 | 0.133 | 0.623 | 0.547 | 0.586 | 0.583 | 0.492 |
| NCI-H460 | 0.68 | 1.4 | 1.11 | 1.03 | 0.69 | 0.673 | 0.652 | 0.658 | 0.177 | 0.11 | 0.2 | 0.139 | 0.0888 | 0.487 | 0.445 | 0.417 | 0.442 | 0.503 |
| NCI-H596 | 1.08 | 1.17 | 1.07 | 0.993 | 1.1 | 1.31 | 1.12 | 1.39 | 0.789 | 0.796 | 0.89 | 0.73 | 0.776 | 0.758 | 0.657 | 0.622 | 0.625 | 0.697 |
| NCI-H647 | 1.06 | 1.26 | 1.15 | 1.01 | 0.409 | 0.43 | 0.383 | 0.431 | 0.702 | 0.47 | 0.524 | 0.528 | 0.418 | 0.875 | 0.487 | 0.505 | 0.657 | 0.65 |
| NCI-H650 | 0.966 | 0.773 | 1.11 | 0.951 | 0.853 | 1.07 | 1.09 | 0.949 | 0.975 | 0.946 | 1.06 | 0.983 | 0.874 | 0.373 | 0.391 | 0.359 | 0.426 | 0.391 |
| NCI-H727 | 0.717 | 0.847 | 1.01 | 0.981 | 0.658 | 0.474 | 0.72 | 0.773 | 0.38 | 0.391 | 0.387 | 0.347 | 0.352 | 0.69 | 0.678 | 0.553 | 0.734 | 0.686 |
| NCI-H838 | 0.906 | 0.97 | 1.07 | 0.895 | 0.928 | 0.888 | 0.989 | 0.934 | 0.705 | 0.566 | 0.506 | 0.529 | 0.49 | 0.823 | 0.756 | 0.741 | 0.725 | 0.788 |
| NCI-H1355 | 0.971 | 0.948 | 1 | 0.935 | 0.682 | 0.801 | 0.822 | 0.796 | 0.455 | 0.433 | 0.47 | 0.417 | 0.464 | 0.772 | 0.735 | 0.756 | 0.757 | 0.796 |
| NCI-H1395 | 0.886 | 0.876 | 0.987 | 1.18 | 0.389 | 0.437 | 0.405 | 0.398 | 1.03 | 0.932 | 0.989 | 0.991 | 1.05 | 0.462 | 0.445 | 0.455 | 0.42 | 0.45 |
| NCI-H1437 | 0.765 | 0.912 | 0.827 | 0.769 | 1.09 | 1.09 | 1.17 | 1.09 | 0.588 | 0.481 | 0.512 | 0.558 | 0.43 | 0.634 | 0.647 | 0.669 | 0.652 | 0.619 |
| NCI-H1651 | 0.673 | 0.863 | 0.724 | 0.949 | 0.463 | 0.427 | 0.488 | 0.543 | 0.851 | 0.83 | 0.775 | 0.832 | 0.85 | 0.206 | 0.182 | 0.196 | 0.2 | 0.175 |
| NCI-H1666 | 0.522 | 0.739 | 0.845 | 0.625 | 0.829 | 0.847 | 1.04 | 1 | 0.842 | 0.839 | 0.968 | 0.862 | 0.908 | 0.754 | 0.801 | 0.747 | 0.729 | 0.768 |
